These results are taken from patent US4871388A, “Herbicidal liquid concentrate compositions” (priority 1987, dated 1989).

Series [1] is described as follows: Solubility of the isomeric mixture at room temperature in various solvents (Table I). The format is physicochemical. An excerpt:
|at Room Temperature in Various Solvents

Series [2] can be described thus: Dilution in water of solutions of the ester(s) to normal agricultural tank-mix rates. The format is physicochemical. The conditions noted are these: solvents with >15% solubility; normal agricultural tank-mix rates (1:9-1:99).
Series [3] can be described thus: Initial solubility and dissolution in water of 7.5 g of liquid concentrate compositions utilizing 1 molar equivalent of different acids (Table II). The conditions noted are these: solvents with greater than 20% by weight solubility; without addition of 0.2 to 1.0 molar equivalent of acids.

For “isomeric mixture of 6-(5-isopropyl-5-methyl-4-oxo-2-imidazolin-2-yl)-m-toluic acid, methyl ester and 2-(5-isopropyl-5-methyl-4-oxo-2-imidazolin-2-yl)-p-toluic acid, methyl ester”, in series [1] (in many of the solvents listed in Table I), the “limited solubility by weight” value was at most 15%. The “% Solubility by Weight” value is reported as above 15% in series [1] (solvent: 1-Formylpiperidine); above 15% in series [1] (solvent: 1-propanol); 5% in series [1] (solvent: Amyl acetate); above 15% in series [1] (solvent: Amyl alcohol (mixed)); 5% in series [1] (solvent: Anisole); 5% in series [1] (solvent: Aromatic 150). Further, the “% Solubility by Weight” value in series [1] (solvent: Chloroform) is above 15%; in series [1] (solvent: Diethyl succinate), 5%; in series [1] (solvent: Dimethyl sulfoxide), above 15%; in series [1] (solvent: Dimethylformamide) it was above 15%; in series [1] (solvent: Methanol), above 15%; in series [1] (solvent: Methyl cellosolve), above 15%. The “% Solubility by Weight” value in series [1] (solvent: Methyl oleate) is 5%; in series [1] (solvent: N-methylpyrrolidone) it was above 15%; in series [1] (solvent: Oleic acid), 5%; in series [1] (solvent: Penn Drake Oil (Kerosene)), 5%; in series [1] (solvent: Propylene glycol), 5%; in series [1] (solvent: Tenneco 500/1000) it was 5%. Also, the “% Solubility by Weight” value in series [1] (solvent: Triethanolamine) and in series [1] (solvent: Xylene) was 5% in each case. The “precipitate formation on dilution in water” value in series [2] was “unsprayable precipitates are formed”. The “dissolution characteristics of the resulting concentrate” value in series [3] is on record as “not satisfactory”.
